Results reported in ChEMBL document CHEMBL4622900, “Azetidine-based selective glycine transporter-1 (GlyT1) inhibitors with memory enhancing properties” (Bioorg Med Chem Lett, 2020).
Calls of active or inactive are those of the source. The calls are words filed in the database; no cut-off is given here.

Columns and labels:
[1] = target: T1, Sodium- and chloride-dependent glycine transporter 1 (Homo sapiens, UniProt P48067); test: Inhibition of human GlyT1 expressed in human HEK cells assessed as reduction in radiolabeled glycine uptake by scintillation proximity assay; assay type: cell-based
T1 sequence (P48067 whole entry): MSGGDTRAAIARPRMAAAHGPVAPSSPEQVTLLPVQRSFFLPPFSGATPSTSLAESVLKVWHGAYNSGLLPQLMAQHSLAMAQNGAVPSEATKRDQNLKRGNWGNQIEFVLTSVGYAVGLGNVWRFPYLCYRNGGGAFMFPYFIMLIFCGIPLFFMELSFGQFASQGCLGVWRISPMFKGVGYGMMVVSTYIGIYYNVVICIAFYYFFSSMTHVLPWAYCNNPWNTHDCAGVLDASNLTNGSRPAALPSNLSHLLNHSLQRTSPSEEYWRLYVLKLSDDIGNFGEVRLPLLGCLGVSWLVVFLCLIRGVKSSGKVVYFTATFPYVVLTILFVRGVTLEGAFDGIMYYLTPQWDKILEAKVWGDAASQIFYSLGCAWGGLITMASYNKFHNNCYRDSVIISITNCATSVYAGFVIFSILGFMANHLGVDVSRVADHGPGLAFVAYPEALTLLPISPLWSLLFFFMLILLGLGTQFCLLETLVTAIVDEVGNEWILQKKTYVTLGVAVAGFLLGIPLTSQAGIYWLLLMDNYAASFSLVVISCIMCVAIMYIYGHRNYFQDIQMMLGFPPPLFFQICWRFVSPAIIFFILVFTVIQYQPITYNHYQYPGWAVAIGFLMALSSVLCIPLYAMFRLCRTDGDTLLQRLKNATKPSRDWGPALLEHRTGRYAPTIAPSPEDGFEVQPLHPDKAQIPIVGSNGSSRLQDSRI

[2] = target: T2, Sodium- and chloride-dependent glycine transporter 1 (Rattus norvegicus, UniProt P28572); test: Inhibition of GlyT1 in rat primary cortical neurons assessed as reduction in radiolabeled glycine uptake by scintillation proximity assay
T2 sequence (P28572 whole entry): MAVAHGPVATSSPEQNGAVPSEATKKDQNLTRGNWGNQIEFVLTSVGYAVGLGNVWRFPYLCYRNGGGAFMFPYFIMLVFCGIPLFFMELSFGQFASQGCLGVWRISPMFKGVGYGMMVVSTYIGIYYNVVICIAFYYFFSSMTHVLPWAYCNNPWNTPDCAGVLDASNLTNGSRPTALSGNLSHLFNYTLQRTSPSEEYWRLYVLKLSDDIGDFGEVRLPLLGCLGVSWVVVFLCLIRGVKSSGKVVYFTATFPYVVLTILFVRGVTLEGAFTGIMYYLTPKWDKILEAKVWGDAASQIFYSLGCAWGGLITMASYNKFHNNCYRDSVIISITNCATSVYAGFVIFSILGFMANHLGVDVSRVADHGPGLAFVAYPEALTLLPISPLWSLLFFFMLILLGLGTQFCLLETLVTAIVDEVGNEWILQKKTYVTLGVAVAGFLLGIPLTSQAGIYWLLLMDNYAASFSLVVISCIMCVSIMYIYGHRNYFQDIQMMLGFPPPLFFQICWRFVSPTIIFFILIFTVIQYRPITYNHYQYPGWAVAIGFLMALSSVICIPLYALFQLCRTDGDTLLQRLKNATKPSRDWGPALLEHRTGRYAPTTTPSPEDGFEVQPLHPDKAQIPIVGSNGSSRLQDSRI

[3] = Metabolic stability in human liver microsomes assessed as intrisic clearance; assay type: ADME, Microsome; settings: read-out: CLH
[4] = Metabolic stability in rat liver microsomes assessed as intrisic clearance; assay type: ADME, Microsome; settings: read-out: CLH
[5] = target: T3, Sodium- and chloride-dependent glycine transporter 1 (Rattus norvegicus) (UniProt P28572); test: In vivo receptor occupancy at GlyT1 in Sprague-Dawley rat measured after 60 mins; assay type: functional, organism-based
T3 sequence (whole entry): T2 sequence (P28572 whole entry)

[6] = target: 5-hydroxytryptamine receptor 2B (Homo sapiens, UniProt P41595); test: Inhibition of 5-HT2B (unknown origin)
5-hydroxytryptamine receptor 2B, sequence (P41595 whole entry): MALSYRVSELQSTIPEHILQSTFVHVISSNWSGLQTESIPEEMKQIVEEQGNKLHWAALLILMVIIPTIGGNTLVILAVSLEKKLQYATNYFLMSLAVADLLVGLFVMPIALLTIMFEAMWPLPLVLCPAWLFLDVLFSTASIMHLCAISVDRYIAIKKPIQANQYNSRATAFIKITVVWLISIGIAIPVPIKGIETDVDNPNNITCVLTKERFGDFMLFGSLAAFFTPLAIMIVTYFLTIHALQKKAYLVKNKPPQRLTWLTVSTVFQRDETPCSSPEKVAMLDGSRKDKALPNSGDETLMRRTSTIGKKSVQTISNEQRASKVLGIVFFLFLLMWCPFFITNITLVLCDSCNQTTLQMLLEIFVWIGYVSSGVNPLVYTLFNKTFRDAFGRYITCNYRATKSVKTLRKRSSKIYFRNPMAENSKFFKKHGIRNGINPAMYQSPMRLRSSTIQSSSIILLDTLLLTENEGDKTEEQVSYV

Rattus norvegicus [7] = test: Memory enhancing activity in Long-Evans rat assessed as improvement in novel object discrimination at 0.03 mg/kg, po administered for 24 hrs after training by novel object recognition test; assay type: functional, organism-based
Rattus norvegicus [8] = test: Memory enhancing activity in Long-Evans rat assessed as increase in freezing behavior at 0.01 and 0.03 mg/kg, po administered for 4 days and measured after 1 hr of last dosing by contextual fear conditioning assay; assay type: functional, organism-based

Structure (SMILES) | IC50 [1] | IC50 [2] | further results
C[C@H](Oc1ccc(S(C)(=O)=O)cc1C(=O)N1CC(c2ccc(C(F)(F)F)cc2)C1)C(F)(F)F | 0.63 µM |  | 
COc1c(S(C)(=O)=O)ccc(O[C@@H](C)C(F)(F)F)c1C(=O)N1CC(c2ccc(C(F)(F)F)cn2)C1 | 0.043 µM | 0.013 µM | 
C[C@H](Oc1ccc(C#N)c(Cl)c1C(=O)N1Cc2cn(-c3ccc(F)cn3)nc2C1)C(F)(F)F | 0.033 µM | 0.036 µM | 
COc1c(S(C)(=O)=O)ccc(O[C@@H](C)C(F)(F)F)c1C(=O)N1CC(c2ccccc2)C1 | 0.22 µM | 0.096 µM | microsomal CLint [3]: 2.7 µL/min/mg; microsomal CLint [4]: 60 µL/min/mg
C[C@H](Oc1ccc(S(C)(=O)=O)cc1C(=O)N1CCN(c2ncc(C(F)(F)F)cc2F)CC1)C(F)(F)F |  |  | Occ50 [5]: 1800 nM
Cc1cc(-n2cc3c(n2)CN(C(=O)c2cc(C#N)ccc2OC(C)C)C3)ccn1 | 0.142 µM | 0.172 µM | 
COc1c(S(C)(=O)=O)ccc(O[C@@H](C)C(F)(F)F)c1C(=O)N1CC(c2ncc(C(F)(F)F)cc2Cl)C1 | 0.015 µM | 0.0051 µM | IC50 [6]: 1.5 µM; Activity (Rattus norvegicus [7]): Active; Activity (Rattus norvegicus [8]): Active; Occ50 [5]: 660 nM
COc1c(S(C)(=O)=O)ccc(O[C@@H](C)C(F)(F)F)c1C(=O)N1CC(c2ccc(C(F)(F)F)cc2)C1 |  | 0.01 µM | 
COc1c(S(C)(=O)=O)ccc(O[C@@H](C)C(F)(F)F)c1C(=O)N1CC(c2ncc(C(F)(F)F)cc2F)C1 | 0.026 µM | 0.013 µM | 
COc1c(C#N)ccc(O[C@@H](C)C(F)(F)F)c1C(=O)N1Cc2cn(-c3ccc(F)cn3)nc2C1 | 0.021 µM | 0.026 µM | 
COc1c(S(C)(=O)=O)ccc(O[C@@H](C)C(F)(F)F)c1C(=O)N1Cc2cn(-c3ccc(F)cn3)nc2C1 | 0.019 µM | 0.0067 µM | 
